Patent US4737517A, “Coumarin derivatives, pharmaceutical compositions containing the same, and the use thereof in the treatment of cancer” (FIDIA, S.p.A., priority 1983, dated 1988)
Where a name gives a salt, the structure may show the parent alone.

Legend:
[1] = test system: platelet hyper-aggregation induced by ADP; experiment: Inhibition of ADP-induced platelet hyperaggregation in vitro (Born's method, aggregometer ELVI 840); type: cell-based, New Zealand rabbits; details: Oryctolagus cuniculus, 0.5 h, ADP 20 μg/ml, 100 γ/ml of active compound, rabbit PRP, incubated 30 minutes at 37° C, read-out: Inhibition of platelet hyper-aggregation induced by ADP
Protocol: Two separate centrifugations are effected (at 1000 rpm and at 6000 rpm), thus obtaining PRP ([…]) and PPP ([…]); the first is diluted with the second in order to obtain a platelet concentration of 300,000 per mm^3 (the count is effected in a Buerker apparatus). The compounds with a platelet antiaggregating activity of the present invention are added at the desired concentrations and incubated for 30 minutes at 37° C. with the aggregating agents. […] The various compounds represented by the numbers in the first column are identifiable by the numbers in the second column which refer to the examples described below in this specification.

[2] = test system: coagulation; experiment: Thrombotest on capillary blood (anticoagulating effect); type: in vivo, mice (C57B1/6J); details: oral; 1st adminis. 1.5 mg/kg, 2nd adminis. 0.3 mg/kg; controls 31.4 ± 1.7
Protocol: In a separate experiment, the anticoagulating activity of the compounds is verified on the same strain of mice at the same doses used for antimetastatic activity evaluation.
The effect on coagulation is measured by a thrombotest on capillary blood taken from the retroorbital cavity (Owren, P. A. et al. Lancet ii, 754-758, 1959).
(§1) The anticoagulating effect measured by the "thrombotest", the antitumor effect measured by the decrease in weight of the primary tumor and the antimetastatic effect shown as the number of metasteses present in the lungs, are reported in Table 2. While the antitumor and antimetastatic effects of Warfarin and the two new products according to the present invention are roughly equal, the strong anticoagulating effect is absent in the two new products of the invention. This is a completely unexpected result.

[3] = test system: 3 LL carcinoma cells (Lewis lung carcinoma); experiment: Antitumor and antimetastatic activity in mice implanted with 3 LL Lewis lung carcinoma; type: in vivo, male mice of the C57B1/6J strain; details: oral
Protocol: This activity is to be seen for instance after administration of doses of between 0.2 mg/kg and 10 mg/kg by the oral route, as illustrated by the following experiments.
1×10^5 3 LL carcinoma cells (Lewis lung carcinoma) are implanted by intramuscular injection in the paws of male mice of the C57B1/6J strain, weighing about 20-22 g. This operation is effected as described in the literature (Poggi A. et al. Cancer Res. 37, 272-277, 1977). The growth of the tumor is observed until the 25th day after transplant. On this day the animals are sacrificed and the primary tumor and lungs are removed in order to evaluate the growth of the primary tumor and the number of metastases. Pharmacological treatment by the oral route begins 2 days before transplant of the tumor and continues until sacrifice. The substances are dissolved in tap water and are changed every 24 hours.
Table 2 reports the results obtained with the two coumarin derivatives 19 and 26, previously mentioned in comparison to Warfarin, the well-known […] and antimetastatic compound, which is also a coumarin derivative. Warfarin's antimetastatic activity is widely documented both experimentally (Zacharski, L. R. et al. Cancer 44, 732-741, 1979 and Poggi, A. et al. Lancet i 163-164, 1978) and clinically (Zacharski, L. R. et al. J. Am. Med. Assoc. 245, 831-835, 1981). […] This effect is measured by the number of metastases (Zacharski, L. R. et al. Cancer 44, 732-741, 1979 and Poggi, A. et al. Lancet i 163-164, 1978).
as §1

[4] = Acute toxicity in the mouse, oral; set-up: species or system mouse (Swiss); details: in vivo, aqueous solution, up to 14 days, Litchfield and Wilcoxon
Protocol: Acute toxicity in the mouse: groups of Swiss mice (male+female) are treated with graduated doses ranging from 0.125 g/kg to 5 g/kg of body weight with compounds 19 to 26. The compounds are administered orally by intubation and dissolved in water.
Subsequent death may be immediate or may occur at any time up to 14 days after treatment. The lethal dose 50 (LD50), that is, the dose which causes the death of 50% of the animals, is evaluated by the method of Litchfield and Wilcoxon (J. Pharmacol. Exp. Ther. 96, 99-113, 1949).

[5] = Acute toxicity in the rat, oral; set-up: species or system rat (Sprague Dawley); details: in vivo, aqueous solution, up to 14 days, Litchfield and Wilcoxon
Protocol: Acute toxicity in the rat: groups of Sprague Dawley rats (male+female) are treated with graduated doses ranging from 0.125 g/kg of body weight to 10 g/kg of body weight of the above mentioned compounds in aqueous solution. The compounds are administered orally by intubation. Subsequent death may be immediate or may occur at any time up to 14 days after treatment.
The lethal dose 50 (LD50), that is, the dose which causes the death of 50% of the animals, is evaluated by the method of Litchfield and Wilcoxon (J. Pharmacol. Ex. Ther. 96, 99-113, 1949).

SMILES	inhibition at 100 µg/mL [1]	also measured
C=CCOc1c(CN2CCOCC2)cc2c(C)c(CCN(CC)CC)c(=O)oc2c1Cl [Compound 67, 3-(2-diethylaminoethyl)-4-methyl-6-(4-morpholinylmethyl)-7-allyloxy-8-chlorocumarin hydrochloride]	18%	
C=CCc1c(O)c(CN2CCN(CCO)CC2)cc2c(-c3ccccc3)cc(=O)oc12 [Compound 49, 4-phenyl-6-[[4-(2-hydroxyethyl)-1-piperazinyl]methyl]-7-hydroxy-8-allylcumarin dihydrochloride]	25%	
Cc1cc(=O)oc2c(Cl)c(O)c(CN(C)C)cc12 [Compound 132, 4-methyl-6-dimethylaminomethyl-7-hydroxy-8-chlorocumarin hydrochloride]	13%	
CCN(CC)CCc1c(C)c2cc(CN3CCOCC3)c(O)c(Cl)c2oc1=O [Compound 58, 3-(2-diethylaminoethyl)-4-methyl-6-(4-morpholinylmethyl)-7-hydroxy-8-chlorocumarin dihydrochloride]	25%	
C=CCc1c(OC(C)(C)C(=O)OCC)c(CN2CCOCC2)cc2c(C)cc(=O)oc12 [Compound 29, Ethyl ester of the acid 2-[4-methyl-6-(4-morpholinylmethyl)-8-allylcumarin-7-yl]oxy-2-methylpropionic hydrochloride]	19%	
CCN(CC)Cc1cc2c(C)cc(=O)oc2c(Cl)c1O [Compound 76, 4-methyl-6-diethylaminomethyl-7-hydroxy-8-chlorocumarin hydrochloride]	27%	
C=CCc1c(O)c(CN(C)C)cc2c(C)cc(=O)oc12.Cl [Compound 19, 4-methyl-6-dimethylaminomethyl-7-hydroxy-8-allylcumarin hydrochloride]	40%	Thrombotest [2]: 29.3 ± 1.7; antitumoral and antimetastatic activity (in words) ([3]; in vivo on mice): antitumoral and antimetastatic activity; No. of metastases ([3]; lungs, 1st adminis. 1.5 mg/kg, 2nd adminis. 0.3 mg/kg, 25th day after transplant, controls 21.8 ± 4.9): 11.4 ± 3.3; Primary Tumor Weight ([3]; 1st adminis. 1.5 mg/kg, 2nd adminis. 0.3 mg/kg, 25th day after transplant, controls 9087 ± 386): 6731 ± 533 mg; LD50 at 336 h [4]: 1210 mg/kg; LD50 at 336 h [5]: 2000 mg/kg
C=CCc1c(O)c(CN2CCOCC2)cc2c(C)cc(=O)oc12 [Compound 25, 4-methyl-6-(4-morpholinylmethyl)-7-hydroxy-8-allylcumarin hydrochlorode]	19%	
C=CCOc1c(CN2CCOCC2)cc2c(C)cc(=O)oc2c1CC=C [Compound 28, 4-methyl-6-(4-morpholinylmethyl)-7-allyloxy-8-allylcumarin hydrochloride]	54%	
Cc1cc(=O)oc2c(Cl)c(O)c(CN3CCOCC3)cc12 [Compound 69, 4-methyl-6-(4-morpholinylmethyl)-7-hydroxy-8-chlorocumarin hydrochloride]	29%	
C=CCc1c(O)c(CN2CCCC(O)C2)cc2c(C)cc(=O)oc12 (centres unmarked) [Compound 201, 4-methyl-6-[(3-hydroxy-1-piperidinyl)methyl]-7-hydroxy-8-allylcumarin hydrochloride]	32%	
C=CCOc1c(CN2CCOCC2)cc2c(-c3ccccc3)cc(=O)oc2c1CC=C [Compound 50, 4-phenyl-6-(4-morpholinylmethyl)-7-allyloxy-8-allylcumarin hydrochloride]	25%	
C=CCc1c(O)c(CN2CCCCC2)cc2c(C)cc(=O)oc12 [Compound 124, 4-methyl-6-(1-piperidinylmethyl)-7-hydroxy-8-allylcumarin hydrochloride]	38%	
C=CCc1c(O)c(CN2CCCC2)cc2c(C)cc(=O)oc12 [Compound 117, 4-methyl-6-(1-pyrrolidinylmethyl)-7-hydroxy-8-allylcumarin hydrochloride]	44%	
C=CCc1c(OCC(=O)OCC)c(CN2CCOCC2)cc2c(-c3ccccc3)cc(=O)oc12 [Compound 51, Ethyl ester of [4-phenyl-6-(4-morpholinylmethyl)-8-allylcumarin-7-yl]oxy acetic acid hydrochloride]	37%	
C=CCc1c(OCC(=O)OCC)c(CN2CCOCC2)cc2c(C)cc(=O)oc12 [Compound 27, Ethyl ester of the acid [4-methyl-6-(4-morpholinylmethyl)-8-allylcumarin-7-yl]oxyacetic]	32%	
CCOC(=O)C(C)(C)Oc1c(CN2CCOCC2)cc2c(C)c(CCN(CC)CC)c(=O)oc2c1Cl [Compound 68, Ethyl ester of 2-[3-(2-diethylaminoethyl)-4-methyl-6-(4-morpholinylmethyl)-8-chlorocumarin-7-yl]oxy-2-methylpropionic acid dihydrochloride]	41%	
C=CCc1c(O)c(CN(CC)CC)cc2c(C)cc(=O)oc12 [Compound 121, 4-methyl-6-diethylaminomethyl-7-hydroxy-8-allylcumarin hydrochloride]	51%	
CCOC(=O)COc1c(CN2CCOCC2)cc2c(C)c(CCN(CC)CC)c(=O)oc2c1Cl [Compound 62, Ethyl ester of [3-(2-diethylaminoethyl)-4-methyl-6-(4-morpholinylmethyl)-8-chlorocumarin-7-yl]oxyacetic acid dihydrochloride]	23%	
C=CCc1c(OC(C)(C)C(=O)OCC)c(CN2CCOCC2)cc2c(-c3ccccc3)cc(=O)oc12 [Compound 52, Ethyl ester of 2-[4-phenyl-6-(4-morpholinylmethyl)-8-allylcumarin-7-yl]oxy-2-methylpropionic acid hydrochloride]	22%	
C=CCc1c(O)c(CN2CCC(O)CC2)cc2c(C)cc(=O)oc12 [Compound 200, 4-methyl-6-[(4-hydroxy-1-piperidinyl)methyl]-7-hydroxy-8-allylcumarin hydrochloride]	21%	
Cc1cc(=O)oc2c(C)c(O)c(CN(C)C)cc12 [Compound 130, 4,8-dimethyl-6-dimethylaminomethyl-7-hydroxycumarin hydrochloride]	29%	
C=CCc1c(O)c(CN2CCOCC2)cc2c(-c3ccccc3)cc(=O)oc12 [Compound 44, 4-phenyl-6-(4-morpholinylmethyl)-7-hydroxy-8-allylcumarin hydrochloride]	20%	
O=c1cc(-c2ccccc2)c2cc(CN3CCOCC3)c(O)c(Cl)c2o1 [Compound 102, 4-phenyl-6-(4-morpholinylmethyl)-7-hydroxy-8-chlorocumarin hydrochloride]	12%	
CCN(CC)CCc1c(C)c2cc(CN3CCOCC3)c(OC)c(Cl)c2oc1=O [Compound 105, 3-(2-diethylaminoethyl)-4-methyl-6-(4-morpholinylmethyl)-7-methoxy-8-chlorocumarin dihydrochloride]	28%	
Cc1cc(=O)oc2c(C)c(O)c(CN3CCOCC3)cc12 [Compound 188, 4,8-dimethyl-6-(4-morpholinylmethyl)-7-hydroxycoumarin hydrochloride]	19%	
